Common to all, as to format: cell-based, human
One assay has as its system mda-4. Kind of assay: mda-4 expression (Northern blotting). To be noted: H0-1; 24 hours; doses of FIG. 19; phenyl butyrate 24 hours, 4 days or 7 days. As to the method:
(§1) The mass excision of the library was performed using ExAssist helper phage as described above. The SOLR strain of Escherichia coli and cDNA phagemids were mixed at 37° C. for 15 min and plated onto LB plates containing ampicillin and IPTG/X-gal. White colonies were chosen at random, isolated and grown in LB medium. Plasmid minireps and restriction enzyme digestions were performed to confirm the presence of inserts. The inserts were isolated and used as robes for Northern blotting analysis (5,25). […] Radiolabeled probes were generated by random oligonucleotide priming (25). Prehybridization, hybridization, posthybridization washes, and autoradiography were performed as described (5,18,25).

In the next assay the test system is mda-6. Kind of assay: mda-6 expression (Northern blotting). As to conditions: H0-1. The protocol: as §1
Total cytoplasmic RNA was isolated and Northern blotting hybridization was performed as described (Reddy et al., 1991; Su et al., 1991; Jiang et al., 1992). Ten μg of RNA was denatured with glyoxal/DMSO, electrophoresed on 1.0% agarose gels, transferred to nylon membranes and hybridized to a ^32P-labeled p53 probe (Baker et al., 1990). The nylon membrane was stripped and hybridized to a ^32P-labeled mda-6 probe (Jiang and Fisher, 1993) and then after a second stripping the membrane was hybridized to a ^32P-labeled rat GAPDH probe (Fort et al., 1985), as described previously (Reddy et al., 1991; Su et al., 1991; Jiang et al., 1992). Following hybridization, the filters were washed and exposed for autoradiography (Reddy et al., 1991; Su et al., 1991; Jiang et al., 1992). mda-6 and GAPDH gene expression were also determined by reverse transcription-polymerase chain reaction (RT-PCR) as described (Adollahi et al., 1991; Lin et al., 1994; Jiang et al., 1994b). Total cytoplasmic RNA was treated with 0.5 units DNase (Boehringer-Mannheim Biochemicals)/μg RNA in 15% glycerol, 10 mM Tris, pH 7.5, 2.5 mM MgCl2, 0.1 mM EDTA, 80 mM KCl, 1 mM CaCl2 and 1 unit/ml RNasin (Promega) at 30° C. for 10 min. RNA was extracted with phenol-chloroform, precipitated with sodium acetate/ethanol and RNA pellets were resuspended in diethylpyrocarbonate-treated H2O. One μg of total RNA was reverse transcribed with 200 units of murine leukemia virus reverse transcriptase (Bethesda Research Laboratories) in 20 μl containing 1 mM deoxyribonucleotide triphosphates, 4 mM MgCl2, 10 mM Tris, pH 8.3, 50 mM KCl, 0.001% gelatin and 0.2 μg oligo-dT primer. Samples were adjusted to 100 μl with buffer containing 0.2 mM deoxyribonucleotide triphosphates, 2 mM MgCl2, 10 mM Tris, pH 8.3, 50 mM KCl and 0.001% gelatin. Fifty pmol of each primer, 1.5 units Taq DNA polymerase (Perkin-Elmer Cetus) were added and samples were covered with mineral oil, heated at 95° C. for 5 min and subjected to 25 cycles of PCR in a Perkin-Elmer Thermal Cycler using 1 min denaturation at 94° C., 2 min annealing at 55° C. and 3 min polymerization at 72° C. After extraction with chloroform, 20 μl of products were electrophoresed, blotted onto nylon filters and hybridized with an mda-6 or GAPDH specific probe. The mda-6 primers were 5′ to 3′ […] (SEQ ID NO:26) and […] (SEQ ID NO:27)(corresponding to nt 1527 to 1546) (GenBank accession number U09579); and the GAPDH primers were 5′ to 3′ […] (SEQ ID NO:28)and […] (SEQ ID NO:29)(corresponding to nt 1070 to 1053) (Tokunaga et al., 1987).

A further assay deals with mda-5. Kind of assay: mda-5 expression (Northern blotting). To be noted: H0-1; 24 hours; doses of FIG. 19; phenyl butyrate 24 hours, 4 days or 7 days. As to the method: as §1
The subject of a further assay is mda-8. Kind of assay: mda-8 expression (Northern blotting). As to conditions: H0-1; 24 hours; doses of FIG. 19; phenyl butyrate 24 hours, 4 days or 7 days. The protocol: as §1
A further assay deals with mda-9. As to the kind of experiment: mda-9 expression (Northern blotting). As to conditions: H0-1; 24 hours; doses of FIG. 19; phenyl butyrate 24 hours, 4 days or 7 days. The protocol:
as §1

The next assay has as its system mda-7. Kind of assay: mda-7 expression (Northern blotting, RT-PCR). As to conditions: for mda-7 expression: H0-1, 24 hours, doses of FIG. 19, phenyl butyrate 24 hours, 4 days or 7 days. The protocol: as §1
Where [1] appears, read: 24 hours, doses of FIG. 19, phenyl butyrate 24 hours, 4 or 7 days.

Starred links: 1 amine or outer side, 2 acyl side, 3 side chain; linkers in the order of their positions; H or OH if unused. Positions of bridges follow the written chain, without caps; N, C: chain ends. Non-standard residues stand in square brackets, D forms with d. Residues, ends and D or L forms follow the SMILES beside them. Chains are numbered I, II in the order given. Actinocin(9to1) = Cc1c2oc3c(C)ccc(C(=O)[*:1])c3nc-2c(C(=O)[*:2])c(N)c1=O; NMeV = CN[C@H](C(=O)O)C(C)C; Sar = CNCC(=O)O

Regarding `CCCC(=O)Oc1ccccc1` [phenyl butyrate], in the assay on mda-4, the mda-4 expression result is “No or only a small change in expression”. In addition, the mda-6 expression entry in the assay on mda-6 (setting [1]) is “Decreased expression”. Moreover, in the assay with mda-5, the mda-5 expression result is recorded as “No change in expression”. The mda-8 expression result in the assay with mda-8 is reported as “No change in expression”. In addition, the mda-9 expression result in the assay on mda-9 is “Increased expression”. Also, the mda-7 expression result in the assay with mda-7 is “No induction in mda-7 expression”.

Regarding `COS(C)(=O)=O` [methyl methanesulfonate], in the assay with mda-6 (2 h exposure to 25 μg/ml), the mda-6 expression entry is “Elevated mda-6 expression”.

Regarding `COc1cccc2c1C(=O)c1c(O)c3c(c(O)c1C2=O)C[C@@](O)(C(=O)CO)C[C@@H]3O[C@H]1C[C@H](N)[C@H](O)[C@H](C)O1` [adriamycin, Adriamycin], the mda-4 expression result in the assay on mda-4 is listed as “No or only a small change in expression”. In the assay with mda-6 (setting [1]), the mda-6 expression entry is on record as “increased expression”. In the assay on mda-5, the mda-5 expression entry was “No change in expression”. In addition, in the assay on mda-8, the mda-8 expression entry was “Increased expression”. Moreover, in the assay with mda-7, the mda-7 expression result is “increased mda-7 expression”.

As for TNF-α, the mda-4 expression result in the assay on mda-4 is reported as “No or only a small change in expression”. The mda-6 expression entry in the assay with mda-6 (setting [1]) is reported as “Decreased expression”. The mda-5 expression result with mda-5 is “No change in expression”. For the same compound, the mda-8 expression result in the assay on mda-8 is “No change in expression”. Besides, the mda-9 expression result in the assay with mda-9 was “Increased expression”. For the same compound, the mda-7 expression entry with mda-7 was “No induction in mda-7 expression”.

On to phenylacetate, for which, in the assay with mda-7 (LAN human neuroblastoma cells, 5 days), the “mda-7 expression (RT-PCR)” value is on record as “induced”.

In the case of IFN-α, the mda-4 expression result in the assay with mda-4 is reported as “increased expression”. Moreover, the mda-6 expression result in the assay with mda-6 (setting [1]) is given as “Decreased expression”. Moreover, the mda-5 expression result in the assay with mda-5 is on record as “increased expression”. In addition, the mda-8 expression result in the assay on mda-8 was “No change in expression”. Also, in the assay with mda-9, the mda-9 expression result is listed as “Increased expression”. In the assay with mda-7, the mda-7 expression entry was “No induction in mda-7 expression”.

Regarding `N.N.[Cl][Pt][Cl]` [cis-platinum], the mda-4 expression result in the assay on mda-4 is given as “increased expression”. Further, in the assay with mda-6 (setting [1]), the mda-6 expression entry is listed as “Decreased expression”. For the same compound, the mda-5 expression entry in the assay on mda-5 is “No change in expression”. Besides, in the assay on mda-8, the mda-8 expression result is recorded as “Increased expression”. Further, in the assay with mda-9, the mda-9 expression result was “No change in mda-9 expression”. For the same compound, the mda-7 expression entry with mda-7 is reported as “No induction in mda-7 expression”.

As for `Cc1c2oc3c(C)ccc(C(=O)N[C@@H]4C(=O)N[C@H](C(C)C)C(=O)N5CCC[C@H]5C(=O)N(C)CC(=O)N(C)[C@@H](C(C)C)C(=O)O[C@@H]4C)c3nc-2c(C(=O)N[C@@H]2C(=O)N[C@H](C(C)C)C(=O)N3CCC[C@H]3C(=O)N(C)CC(=O)N(C)[C@@H](C(C)C)C(=O)O[C@@H]2C)c(N)c1=O` [actinomycin D] (I: T[dV]P[Sar][NMeV] / II: T[dV]P[Sar][NMeV]; ester I:1-I:C, II:1-II:C; linker I:N-II:N via Actinocin(9to1)), the mda-4 expression entry in the assay with mda-4 is “No or only a small change in expression”. Also, the mda-6 expression result with mda-6 (setting [1]) was “increased expression”. Besides, the mda-5 expression entry in the assay on mda-5 is recorded as “No change in expression”. For the same compound, the mda-8 expression result in the assay on mda-8 is reported as “Increased expression”. Moreover, the mda-9 expression result in the assay on mda-9 was “No change in mda-9 expression”. Moreover, the mda-7 expression entry with mda-7 was “No induction in mda-7 expression”.

With `COc1cc([C@@H]2c3cc4c(cc3[C@@H](O[C@@H]3O[C@@H]5CO[C@@H](C)O[C@H]5[C@H](O)[C@H]3O)[C@H]3COC(=O)[C@H]23)OCO4)cc(OC)c1O` [VP-16], in the assay with mda-4, the mda-4 expression result was “No or only a small change in expression”. The mda-6 expression result with mda-6 (setting [1]) is “increased expression”. Further, in the assay on mda-5, the mda-5 expression entry is “No change in expression”. The mda-8 expression result with mda-8 is reported as “No change in expression”. Also, the mda-9 expression entry in the assay with mda-9 is “Increased expression”. Also, the mda-7 expression result in the assay on mda-7 was “No induction in mda-7 expression”.

`CC[C@]1(O)C[C@H]2CN(CCc3c([nH]c4ccccc34)[C@@](C(=O)OC)(c3cc4c(cc3OC)N(C=O)[C@H]3[C@@](O)(C(=O)OC)[C@H](OC(C)=O)[C@]5(CC)C=CCN6CC[C@]43[C@@H]65)C2)C1` [vincristine, Vincristine]: the mda-4 expression result with mda-4 is listed as “No or only a small change in expression”. Further, in the assay with mda-6 (setting [1]), the mda-6 expression result is listed as “No change in mda-6 expression”. In addition, the mda-5 expression result with mda-5 is listed as “No change in expression”. Further, the mda-8 expression result with mda-8 was “No change in expression”. For the same compound, the mda-9 expression result in the assay with mda-9 was “No change in mda-9 expression”. Also, the mda-7 expression result in the assay with mda-7 is listed as “increased mda-7 expression”.
